“And” between values parts separate entries of the source, which are not always exact repeats. Identical values can stand only once. Toxic doses and inconclusive results are not listed.
Tested on: P388 leukemia ip, CD2F1 mice, survival T/C
Test: NCI In Vivo Anticancer Drug Screen. Data for tumor model P388 Leukemia (intraperitoneal) in CD2F1 (CDF1) mice
Conditions: endpoint: median survival time, higher = longer survival
Outline: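 Mice carrying the transplanted tumor received test compound or vehicle. Survival was recorded in each group, and the value is the treated-group measurement divided by that of the vehicle-treated control group.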

[1] = dose: 200.0 mg/kg/injection, schedule: Q01DX009 (ip), vehicle: saline

## COc1ccc2[nH]c(=O)c(C#N)c(C)c2c1
dose: 12.5 mg/kg/injection, schedule: Q01DX005 (ip), vehicle: saline with Tween-80
  T/C: 95 % of control
dose: 25.0 mg/kg/injection, schedule: Q01DX005 (ip), vehicle: saline with Tween-80
  T/C: 91 % of control
dose: 50.0 mg/kg/injection, schedule: Q01DX005 (ip), vehicle: saline with Tween-80
  T/C: 104 % of control and 91 % of control

## CC(O)c1nc2ncc(Br)cc2[nH]1 (configuration not stated)
dose: 100.0 mg/kg/injection, schedule: Q01DX001 (ip), vehicle: saline with Tween-80
  T/C: 93 % of control
dose: 200.0 mg/kg/injection, schedule: Q01DX001 (ip), vehicle: saline with Tween-80
  T/C: 99 % of control
dose: 400.0 mg/kg/injection, schedule: Q01DX001 (ip), vehicle: saline with Tween-80
  T/C: 101 % of control

## CC([NH-])C[NH-].O=[N+]([O-])O.O=[N+]([O-])O.[Pt+2] (configuration not stated)
dose: 6.25 mg/kg/injection, schedule: Q04DX002 (ip), vehicle: saline
  T/C: 153 % of control
dose: 12.5 mg/kg/injection, schedule: Q04DX002 (ip), vehicle: saline
  T/C: 100 % of control and 98 % of control

## COC(=O)/C(=C\Sc1ccccc1)NC(C)=O
dose: 60.0 mg/kg/injection, schedule: Q01DX005 (ip), vehicle: Klucel (hydroxypropylcellulose) (HPC)
  T/C: 100 % of control
dose: 120.0 mg/kg/injection, schedule: Q01DX005 (ip), vehicle: Klucel (hydroxypropylcellulose) (HPC)
  T/C: 98 % of control
dose: 240.0 mg/kg/injection, schedule: Q01DX005 (ip), vehicle: Klucel (hydroxypropylcellulose) (HPC)
  T/C: 107 % of control

## COC(C(=O)C1=C2Oc3c4c(cc(O)c3C(=O)C2C2=C(CCCC2)C1=O)OC(C)(C)C=C4)C(C)CCC=C(C)C (configuration not stated)
dose: 50.0 mg/kg/injection, schedule: Q01DX005 (ip), vehicle: saline
  T/C: 112 % of control
dose: 200.0 mg/kg/injection, schedule: Q01DX005 (ip), vehicle: saline
  T/C: 90 % of control

## O=C(NC(=O)C1CCC(=O)N1Cc1ccccc1)NC1CCC(=O)N1Cc1ccccc1 (configuration not stated)
dose: 60.0 mg/kg/injection, schedule: Q01DX005 (ip), vehicle: saline with Tween-80
  T/C: 96 % of control
dose: 120.0 mg/kg/injection, schedule: Q01DX005 (ip), vehicle: saline with Tween-80
  T/C: 94 % of control

## CCOC(=O)C(SC(S(=O)(=O)c1ccccc1)S(=O)(=O)c1ccccc1)C(=O)OCC
dose: 50.0 mg/kg/injection, schedule: Q01DX009 (ip), vehicle: Klucel (hydroxypropylcellulose) (HPC)
  T/C: 98 % of control
dose: 100.0 mg/kg/injection, schedule: Q01DX009 (ip), vehicle: Klucel (hydroxypropylcellulose) (HPC)
  T/C: 90 % of control
dose: 200.0 mg/kg/injection, schedule: Q01DX009 (ip), vehicle: Klucel (hydroxypropylcellulose) (HPC)
  T/C: 90 % of control

## CC12CCC3C(CCC4CC(OC(=O)Cc5ccc(N(CCCl)CCCl)cc5)CCC43C)C1CCC(=O)N2 (configuration not stated)
dose: 0.75 mg/kg/injection, schedule: Q01DX009 (ip), vehicle: saline with Tween-80
  T/C: 112 % of control and 117 % of control
dose: 1.5 mg/kg/injection, schedule: Q01DX009 (ip), vehicle: saline with Tween-80
  T/C: 111 % of control and 124 % of control
dose: 6.0 mg/kg/injection, schedule: Q01DX009 (ip), vehicle: saline with Tween-80
  T/C: 169 % of control and 184 % of control
dose: 12.0 mg/kg/injection, schedule: Q01DX009 (ip), vehicle: saline with Tween-80
  T/C: 220 % of control and 237 % of control
dose: 24.0 mg/kg/injection, schedule: Q01DX009 (ip), vehicle: saline with Tween-80
  T/C: 104 % of control and 121 % of control

## CSC(=S)N/N=C(\C)c1ccccn1
dose: 50.0 mg/kg/injection, schedule: Q01DX009 (ip), vehicle: saline
  T/C: 92 % of control
dose: 100.0 mg/kg/injection, schedule: Q01DX009 (ip), vehicle: saline
  T/C: 92 % of control
[1]
  T/C: 99 % of control
dose: 400.0 mg/kg/injection, schedule: Q01DX009 (ip), vehicle: saline
  T/C: 106 % of control

## COc1ccc(/C=C(/C)[N+](=O)[O-])cc1OC
dose: 22.0 mg/kg/injection, schedule: Q01DX009 (ip), vehicle: saline with Tween-80
  T/C: 109 % of control
dose: 33.0 mg/kg/injection, schedule: Q01DX009 (ip), vehicle: saline with Tween-80
  T/C: 109 % of control
dose: 50.0 mg/kg/injection, schedule: Q01DX009 (ip), vehicle: saline with Tween-80
  T/C: 109 % of control
dose: 75.0 mg/kg/injection, schedule: Q01DX009 (ip), vehicle: saline with Tween-80
  T/C: 118 % of control
[1]
  T/C: 100 % of control

— PubChem BioAssay AID330 (DTP/NCI, 2004)
